Measured values reported in the supplement of paper PMC10307832.

Key:
Test in all cases: relative viability (nuclei count vs DMSO), 5 days (fraction); higher = more cells survive
[1] = tested on: COR-L23
Outline: (§1)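 Lung cancer cell lines in 1536-well plates were dosed by pin tool the day after seeding, either with one drug alone or with a fixed anchor-drug dose plus five library-drug doses (not always all listed) in √10 steps. After 5 days, cells were fixed and their nuclei stained in one step (final 0.05% Triton X-100, 1% formaldehyde, 1 ug/ml Hoechst), then counted on 4× images. Relative viability is the nuclei count in treated wells divided by that in vehicle wells. Values are medians of duplicate plates.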

[2] = tested on: ChaGo-K-1
Outline: as §1

[3] = tested on: EMC-BAC-2
Outline: as §1

[4] = tested on: EPLC-272H
Outline: as §1

[5] = tested on: HCC-44
Outline: as §1

[6] = tested on: HOP-62
Outline: as §1

[7] = tested on: LK-2
Outline: as §1

[8] = tested on: NCI-H1355
Outline: as §1

[9] = tested on: NCI-H1666
Outline: as §1

[10] = tested on: NCI-H1944
Outline: as §1

[11] = tested on: NCI-H1975
Outline: as §1

[12] = tested on: NCI-H2023
Outline: as §1

[13] = tested on: NCI-H2087
Outline: as §1

[14] = tested on: NCI-H2126
Outline: as §1

[15] = tested on: NCI-H2228
Outline: as §1

[16] = tested on: NCI-H2405
Outline: as §1

[17] = tested on: NCI-H3122
Outline: as §1

[18] = tested on: NCI-H322M
Outline: as §1

[19] = tested on: NCI-H441
Outline: as §1

[20] = tested on: NCI-H460
Outline: as §1

[21] = tested on: NCI-H596
Outline: as §1

[22] = tested on: PC-14
Outline: as §1

[23] = tested on: SW 1573
Outline: as §1

Nc1cccc2c1CN(C1CCC(=O)NC1=O)C2=O (stereo unspecified) [Lenalidomide] + CC1(C)CCC(c2ccc(Cl)cc2)=C(CN2CCN(c3ccc(C(=O)NS(=O)(=O)c4ccc(N[C@H](CCN5CCOCC5)CSc5ccccc5)c(S(=O)(=O)C(F)(F)F)c4)cc3)CC2)C1 [Navitoclax] (partner 0.5 µM)
relative viability ([1]; first compound 0.253 µM): 0.986 | relative viability ([1]; first compound 0.8 µM): 1.01 | relative viability ([1]; first compound 2.53 µM): 0.997 | relative viability ([1]; first compound 8 µM): 1.06 | relative viability ([2]; first compound 0.253 µM): 1.08 | relative viability ([2]; first compound 2.53 µM): 1.05 | relative viability ([2]; first compound 8 µM): 0.949 | relative viability ([3]; first compound 0.253 µM): 1.18 | relative viability ([3]; first compound 0.8 µM): 1.15 | relative viability ([3]; first compound 2.53 µM): 1.33 | relative viability ([3]; first compound 8 µM): 0.975 | relative viability ([4]; first compound 0.253 µM): 1.24 | relative viability ([4]; first compound 2.53 µM): 0.917 | relative viability ([4]; first compound 8 µM): 0.741 | relative viability ([5]; first compound 0.253 µM): 0.966 | relative viability ([5]; first compound 0.8 µM): 0.75 | relative viability ([5]; first compound 2.53 µM): 1.1 | relative viability ([5]; first compound 8 µM): 0.917 | relative viability ([6]; first compound 0.253 µM): 1.07 | relative viability ([6]; first compound 0.8 µM): 0.985 | relative viability ([6]; first compound 2.53 µM): 0.944 | relative viability ([6]; first compound 8 µM): 1.04 | relative viability ([7]; first compound 0.253 µM): 0.817 | relative viability ([7]; first compound 0.8 µM): 0.85 | relative viability ([7]; first compound 2.53 µM): 0.959 | relative viability ([7]; first compound 8 µM): 0.709 | relative viability ([8]; first compound 0.253 µM): 1 | relative viability ([8]; first compound 0.8 µM): 0.737 | relative viability ([8]; first compound 2.53 µM): 0.889 | relative viability ([8]; first compound 8 µM): 0.561 | relative viability ([9]; first compound 0.253 µM): 0.915 | relative viability ([9]; first compound 0.8 µM): 0.893 | relative viability ([9]; first compound 2.53 µM): 0.837 | relative viability ([9]; first compound 8 µM): 0.856 | relative viability ([10]; first compound 0.253 µM): 0.984 | relative viability ([10]; first compound 0.8 µM): 1.08 | relative viability ([10]; first compound 2.53 µM): 1.02 | relative viability ([10]; first compound 8 µM): 0.873 | relative viability ([11]; first compound 0.253 µM): 1.13 | relative viability ([11]; first compound 0.8 µM): 1.07 | relative viability ([11]; first compound 2.53 µM): 1.25 | relative viability ([11]; first compound 8 µM): 1.19 | relative viability ([12]; first compound 0.253 µM): 1 | relative viability ([12]; first compound 0.8 µM): 1.13 | relative viability ([12]; first compound 2.53 µM): 1.05 | relative viability ([12]; first compound 8 µM): 1.01 | relative viability ([13]; first compound 0.253 µM): 1.03 | relative viability ([13]; first compound 0.8 µM): 0.971 | relative viability ([13]; first compound 2.53 µM): 0.962 | relative viability ([13]; first compound 8 µM): 1.06 | relative viability ([14]; first compound 0.253 µM): 0.798 | relative viability ([14]; first compound 0.8 µM): 0.907 | relative viability ([14]; first compound 2.53 µM): 0.815 | relative viability ([14]; first compound 8 µM): 0.688 | relative viability ([15]; first compound 0.253 µM): 0.821 | relative viability ([15]; first compound 0.8 µM): 0.711 | relative viability ([15]; first compound 2.53 µM): 0.949 | relative viability ([15]; first compound 8 µM): 0.905 | relative viability ([16]; first compound 0.253 µM): 0.83 | relative viability ([16]; first compound 0.8 µM): 0.921 | relative viability ([16]; first compound 2.53 µM): 0.793 | relative viability ([16]; first compound 8 µM): 0.802 | relative viability ([17]; first compound 0.253 µM): 1 | relative viability ([17]; first compound 0.8 µM): 1.08 | relative viability ([17]; first compound 2.53 µM): 0.997 | relative viability ([17]; first compound 8 µM): 1.07 | relative viability ([18]; first compound 0.253 µM): 1 | relative viability ([18]; first compound 0.8 µM): 1.42 | relative viability ([18]; first compound 2.53 µM): 1.17 | relative viability ([18]; first compound 8 µM): 0.965 | relative viability ([19]; first compound 0.253 µM): 0.507 | relative viability ([19]; first compound 0.8 µM): 0.348 | relative viability ([19]; first compound 2.53 µM): 0.52 | relative viability ([19]; first compound 8 µM): 0.513 | relative viability ([20]; first compound 0.253 µM): 0.811 | relative viability ([20]; first compound 0.8 µM): 1.28 | relative viability ([20]; first compound 2.53 µM): 1.15 | relative viability ([20]; first compound 8 µM): 1.13 | relative viability ([21]; first compound 0.253 µM): 0.951 | relative viability ([21]; first compound 0.8 µM): 0.795 | relative viability ([21]; first compound 2.53 µM): 0.989 | relative viability ([21]; first compound 8 µM): 0.879 | relative viability ([22]; first compound 0.253 µM): 0.907 | relative viability ([22]; first compound 0.8 µM): 1.02 | relative viability ([22]; first compound 2.53 µM): 1.08 | relative viability ([22]; first compound 8 µM): 1.05 | relative viability ([23]; first compound 0.253 µM): 0.931 | relative viability ([23]; first compound 0.8 µM): 0.911 | relative viability ([23]; first compound 2.53 µM): 1.07 | relative viability ([23]; first compound 8 µM): 0.926

Cc1cn(-c2cc(NC(=O)c3ccc(C)c(Nc4nccc(-c5cccnc5)n4)c3)cc(C(F)(F)F)c2)cn1 [Nilotinib] + CS(=O)(=O)CCNCc1ccc(-c2ccc3ncnc(Nc4ccc(OCc5cccc(F)c5)c(Cl)c4)c3c2)o1 [Lapatinib] (partner 2 µM)
relative viability ([1]; first compound 0.001 µM): 0.834 | relative viability ([1]; first compound 0.003162 µM): 1.53 | relative viability ([1]; first compound 0.01 µM): 1.7 | relative viability ([1]; first compound 0.03162 µM): 0.822 | relative viability ([1]; first compound 0.1 µM): 0.825 | relative viability ([3]; first compound 0.001 µM): 0.834 | relative viability ([3]; first compound 0.003162 µM): 0.952 | relative viability ([3]; first compound 0.01 µM): 0.924 | relative viability ([3]; first compound 0.03162 µM): 0.784 | relative viability ([3]; first compound 0.1 µM): 0.606 | relative viability ([4]; first compound 0.001 µM): 0.877 | relative viability ([4]; first compound 0.003162 µM): 1.23 | relative viability ([4]; first compound 0.01 µM): 0.775 | relative viability ([4]; first compound 0.03162 µM): 0.976 | relative viability ([4]; first compound 0.1 µM): 0.402 | relative viability ([5]; first compound 0.001 µM): 0.994 | relative viability ([5]; first compound 0.003162 µM): 1.09 | relative viability ([5]; first compound 0.01 µM): 0.822 | relative viability ([5]; first compound 0.03162 µM): 0.966 | relative viability ([5]; first compound 0.1 µM): 0.869 | relative viability ([7]; first compound 0.001 µM): 0.854 | relative viability ([7]; first compound 0.003162 µM): 0.754 | relative viability ([7]; first compound 0.01 µM): 1.05 | relative viability ([7]; first compound 0.03162 µM): 0.875 | relative viability ([7]; first compound 0.1 µM): 0.822 | relative viability ([8]; first compound 0.001 µM): 1.07 | relative viability ([8]; first compound 0.003162 µM): 1.32 | relative viability ([8]; first compound 0.01 µM): 1.2 | relative viability ([8]; first compound 0.03162 µM): 1.12 | relative viability ([8]; first compound 0.1 µM): 0.401 | relative viability ([9]; first compound 0.001 µM): 0.772 | relative viability ([9]; first compound 0.003162 µM): 0.901 | relative viability ([9]; first compound 0.01 µM): 0.461 | relative viability ([9]; first compound 0.03162 µM): 0.655 | relative viability ([9]; first compound 0.1 µM): 0.641 | relative viability ([10]; first compound 0.001 µM): 0.894 | relative viability ([10]; first compound 0.003162 µM): 0.996 | relative viability ([10]; first compound 0.01 µM): 0.742 | relative viability ([10]; first compound 0.03162 µM): 1.03 | relative viability ([10]; first compound 0.1 µM): 0.389 | relative viability ([11]; first compound 0.001 µM): 0.859 | relative viability ([11]; first compound 0.003162 µM): 1.18 | relative viability ([11]; first compound 0.01 µM): 0.894 | relative viability ([11]; first compound 0.03162 µM): 0.658 | relative viability ([11]; first compound 0.1 µM): 0.433 | relative viability ([12]; first compound 0.001 µM): 0.702 | relative viability ([12]; first compound 0.003162 µM): 0.611 | relative viability ([12]; first compound 0.01 µM): 0.739 | relative viability ([12]; first compound 0.03162 µM): 0.775 | relative viability ([12]; first compound 0.1 µM): 0.15 | relative viability ([13]; first compound 0.001 µM): 0.62 | relative viability ([13]; first compound 0.003162 µM): 1.21 | relative viability ([13]; first compound 0.01 µM): 1.17 | relative viability ([13]; first compound 0.03162 µM): 0.686 | relative viability ([13]; first compound 0.1 µM): 0.289 | relative viability ([14]; first compound 0.001 µM): 0.729 | relative viability ([14]; first compound 0.003162 µM): 0.813 | relative viability ([14]; first compound 0.01 µM): 0.664 | relative viability ([14]; first compound 0.03162 µM): 0.858 | relative viability ([14]; first compound 0.1 µM): 0.507 | relative viability ([15]; first compound 0.001 µM): 1.03 | relative viability ([15]; first compound 0.003162 µM): 1.25 | relative viability ([15]; first compound 0.01 µM): 1.13 | relative viability ([15]; first compound 0.03162 µM): 1.01 | relative viability ([15]; first compound 0.1 µM): 0.285 | relative viability ([17]; first compound 0.001 µM): 0.988 | relative viability ([17]; first compound 0.003162 µM): 1.07 | relative viability ([17]; first compound 0.01 µM): 0.991 | relative viability ([17]; first compound 0.03162 µM): 1.01 | relative viability ([17]; first compound 0.1 µM): 0.98 | relative viability ([18]; first compound 0.001 µM): 0.557 | relative viability ([18]; first compound 0.003162 µM): 0.515 | relative viability ([18]; first compound 0.03162 µM): 0.596 | relative viability ([18]; first compound 0.1 µM): 0.649 | relative viability ([20]; first compound 0.001 µM): 0.521 | relative viability ([20]; first compound 0.03162 µM): 0.378 | relative viability ([20]; first compound 0.1 µM): 0.0571 | relative viability ([21]; first compound 0.001 µM): 1.01 | relative viability ([21]; first compound 0.003162 µM): 1.15 | relative viability ([21]; first compound 0.01 µM): 1.09 | relative viability ([21]; first compound 0.03162 µM): 0.984 | relative viability ([21]; first compound 0.1 µM): 0.88 | relative viability ([22]; first compound 0.001 µM): 0.328 | relative viability ([22]; first compound 0.003162 µM): 0.422 | relative viability ([22]; first compound 0.01 µM): 0.367 | relative viability ([22]; first compound 0.03162 µM): 0.318 | relative viability ([22]; first compound 0.1 µM): 0.277 | relative viability ([23]; first compound 0.003162 µM): 1.26 | relative viability ([23]; first compound 0.01 µM): 1.17 | relative viability ([23]; first compound 0.03162 µM): 1.1 | relative viability ([23]; first compound 0.1 µM): 1.27
